# Where “and” joins values, the source holds several entries; their conditions need not be identical. Identical values can stand only once. Entries after “also recorded” stand apart in the source; their conditions may differ. Like-named read-outs stand apart in the source and are kept apart here.
# Key:
# [1] = target: T1, human PPARγ (Homo sapiens, UniProt P37231); assay type: cell-based; conditions: for PPARγ agonist activity (result in words): 24 hr exposure, vs vehicle control; for fold increase in PPARγ activity relative to vehicle control: 10-fold concentration intervals (Fig. 4)
# T1 sequence (P37231 1-505): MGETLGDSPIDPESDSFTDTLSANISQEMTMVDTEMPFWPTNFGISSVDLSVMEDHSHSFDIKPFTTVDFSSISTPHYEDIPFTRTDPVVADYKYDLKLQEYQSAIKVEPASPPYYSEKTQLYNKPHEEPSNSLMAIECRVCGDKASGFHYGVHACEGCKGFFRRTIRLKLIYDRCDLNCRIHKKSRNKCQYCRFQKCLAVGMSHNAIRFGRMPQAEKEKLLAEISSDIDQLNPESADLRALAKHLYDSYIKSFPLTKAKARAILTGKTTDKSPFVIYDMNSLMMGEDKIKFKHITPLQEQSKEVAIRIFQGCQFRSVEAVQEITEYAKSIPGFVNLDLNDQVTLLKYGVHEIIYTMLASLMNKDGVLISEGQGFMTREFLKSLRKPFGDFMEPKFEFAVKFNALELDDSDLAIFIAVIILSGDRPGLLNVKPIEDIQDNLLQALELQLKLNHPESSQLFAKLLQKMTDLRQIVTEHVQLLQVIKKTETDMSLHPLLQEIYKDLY
# [2] = test system: CHO PPARγ reporter cells; assay type: cell-based, Chinese Hamster; conditions: 0.1 μM to 100 μM; 24 hr
# [3] = test system: D283 Med cells; test: MTS viability assay; assay type: cell-based, human; conditions: 1 μM to 30 μM, 48 hour exposure (Fig. 6 legend)
# [4] = test system: caspase 3 activity in D283 Med cells; test: caspase 3 activity assay in cell lysates; assay type: cell-based, human; conditions: 6 hour exposure
smiles,measurement,setting,value
"CCCCC(CC)COC(=O)c1cc(Br)c(Br)c(Br)c1Br (stereo not shown) [TBB, 2-ethylhexyl-2,3,4,5-tetrabromobenzoate]",PPARγ agonist activity (result in words),[1],No statistical differences; also recorded: No activity
"C=[CH][Sn]([CH2]CCC)([CH2]CCC)[CH2]CCC [TBVT, Tributyl(vinyl)tin, reference compound]",Concentration of maximal PPARγ activity observed,[1],10 µM
same,fold increase in PPARγ activity relative to vehicle control,[1]; 10 μM (10^-5 M),3 fold and 3.3 ± 0.3 fold
"[Cl][Sn]([c]1ccccc1)([c]1ccccc1)[c]1ccccc1 [TPT Cl, triphenyltin chloride, reference compound]",Concentration of maximal PPARγ activity observed,[1],0.1 µM
same,concentration above which PPARγ activity decreased,[1]; non-monotonic concentration response,> 0.1 µM
same,AC50,"[1]; read-out: AC50, concentration eliciting half-maximal response, 4-parameter variable slope model",3 nM and 3.3 nM
"O=P(Oc1ccccc1)(Oc1ccccc1)Oc1ccccc1 [TPP, triphenyl phosphate]",Concentration of maximal PPARγ activity observed,[1],30 µM
same,fold increase in PPARγ activity relative to vehicle control,[1]; 10 μM (10^-5 M),6.23 ± 0.63 fold and 6.2 fold
same,fold increase in PPARγ activity,"[1]; 30 μM, focused analysis with half-log (3-fold) increments (Fig. 5)",20 ± 2.2 fold
same,fold increase in PPARγ activity relative to vehicle control,[1]; 100 μM,2.84 ± 0.34 fold
same,PPARγ agonist activity (result in words),[1],Significant agonist activity
same,"relative maximal PPARγ activity, percent of TPT Cl",[1]; TPP at 30 μM,57% ± 6%
same,effect on cell viability,[2],dose dependent decreases in cell viability
same,effect on viability,[3],decreased viability
same,concentration above which caspase activity significantly increased,[4],above 1 μM
same,effect on caspase 3 activity,[4],significant dose dependent increases in caspase 3 activities

# Reference: paper PMC4180444 (Toxicology letters, 2014)
